Data taken from patent US11111251B2, “Positive allosteric modulators of the muscarinic acetylcholine receptor M1” (Vanderbilt University, priority 2016, dated 2021).
Where two headings read alike, the source gives them in different places.

Target: T1, human mAChR M1 (Homo sapiens, UniProt P11229)
T1 sequence (P11229 1-460): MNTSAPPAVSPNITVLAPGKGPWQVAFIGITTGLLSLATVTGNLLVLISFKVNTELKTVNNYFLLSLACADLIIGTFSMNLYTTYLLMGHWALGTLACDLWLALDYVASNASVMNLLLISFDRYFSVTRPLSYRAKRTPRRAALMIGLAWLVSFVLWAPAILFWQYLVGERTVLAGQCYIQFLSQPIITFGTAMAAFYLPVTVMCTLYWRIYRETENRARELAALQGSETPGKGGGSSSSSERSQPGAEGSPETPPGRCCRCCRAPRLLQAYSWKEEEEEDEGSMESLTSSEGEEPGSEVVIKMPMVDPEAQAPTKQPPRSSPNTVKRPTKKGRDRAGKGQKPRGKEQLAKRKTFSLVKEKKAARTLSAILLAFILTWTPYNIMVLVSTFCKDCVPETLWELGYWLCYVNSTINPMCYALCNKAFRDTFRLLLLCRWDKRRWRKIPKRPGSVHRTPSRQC
Experiment: mAChR M1 cell-based functional assay: calcium mobilization, positive allosteric modulator mode (increase in EC20 acetylcholine response)
Settings: for Emax: read-out: Human M1 Emax (%)
How it was run: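 PAM potency reflects the concentration-dependent increase in calcium response to an EC20 acetylcholine challenge, given 144 s into a 300 s read after compound addition at 4 s (EC80 follows at 230 s). Cells were hM1-expressing CHO-K1, loaded 50 min with Fluo-4 AM. Curves used 11 points at 1:3 dilutions and four-parameter logistic fitting.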

[1] = Table 2, human M1, read-out: Human M1 EC50

EC50 [1] [nM] | Emax (Table 2, human M1) [%] | EC50 (Table 1, mAChR M1 cell-based functional assay, PAM mode, species not given, read-out: EC50) [nM] | Structure (SMILES)
725 | 68.8 | – | CC1(C)CC(NC(=O)c2ccc(Cc3cc(C(=O)NC4CCOC(C)(C)C4)nc4ccsc34)cc2)CCO1 (centres unmarked) [Compound 409, N-(2,2-dimethyltetrahydropyran-4-yl)-7-[[4-[(2,2-dimethyltetrahydropyran-4-yl)carbamoyl]phenyl]methyl]thieno[3,2-b]pyridine-5-carboxamide]
4210 | 51.4 | – | O=C(N[C@@H]1CCOC1)c1cc(Cc2ccc(-c3cncs3)cc2)c2sccc2n1 [Compound 400]
483 | 37.5 | – | Cn1ccc2nc(C(=O)NCC3CCOCC3)cc(Cc3ccc(-c4nccs4)cc3)c21 [Compound 486, 1-methyl-N-(tetrahydropyran-4-ylmethyl)-7-[(4-thiazol-2-ylphenyl)methyl]pyrrolo[3,2-b]pyridine-5-carboxamide]
316 | 64.6 | – | Cn1ccc(-c2ccc(Cc3cc(C(=O)NC[C@H]4CCCN4)nc4ccsc34)cn2)n1 [Compound 427]
157 | 73.1 | – | Cn1ccc2nc(C(=O)NC3CC4(COC4)C3)cc(Cc3ccc(-n4cccn4)cc3)c21 [Compound 449, 1-Methyl-N-(2-oxaspiro[3.3]heptan-6-yl)-7-[(4-pyrazol-1-ylphenyl)methyl]pyrrolo[3,2-b]pyridine-5-carboxamide]
7120 | 78.2 | – | CC1CC(NC(=O)c2cc(Cc3ccc(-c4ccn(C)n4)nc3)c3c(ccn3C)n2)CC(C)O1 (centres unmarked) [Compound 506, N-(2,6-dimethyltetrahydropyran-4-yl)-1-methyl-7-[[6-(1-methylpyrazol-3-yl)-3-pyridyl]methyl]pyrrolo[3,2-b]pyridine-5-carboxamide;]
> 10000 | 41.1 | – | O=C(NC1CCC(F)(F)CC1)c1cc(Cc2ccc(-c3nccs3)cc2)c2sccc2n1 [Compound 385, N-(4,4-difluorocyclohexyl)-7-[(4-thiazol-2-ylphenyl)methyl]thieno[3,2-b]pyridine-5-carboxamide]
985 | 77.6 | – | Cn1ccc(-c2ccc(Cc3cc(C(=O)NC4CC5(COC5)C4)nc4ccn(C)c34)cn2)n1 [Compound 507, 1-methyl-7-[[6-(1-methylpyrazol-3-yl)-3-pyridyl]methyl]-N-(2-oxaspiro[3.3]heptan-6-yl)pyrrolo[3,2-b]pyridine-5-carboxamide;]
712 | 77.8 | – | Cn1ccc(-c2ccc(Cc3cc(C(=O)N[C@H]4CC[C@@H]4O)nc4ccn(C)c34)cn2)n1 [Compound 513, N-[(1S,2S)-2-hydroxycyclobutyl]-1-methyl-7-[[6-(1-methylpyrazol-3-yl)-3-pyridyl]methyl]pyrrolo[3,2-b]pyridine-5-carboxamide]
760 | 70.1 | – | Cn1ccc(-c2ccc(Cc3cc(C(=O)NC4CC(F)C4)nc4ccsc34)cn2)n1 (centres unmarked) [Compound 419, N-(3-fluorocyclobutyl)-7-[[6-(1-methylpyrazol-3-yl)-3-pyridyl]methyl]thieno[3,2-b]pyridine-5-carboxamide]
13.9 | 69.3 | – | Cn1ccc2nc(C(=O)N[C@H]3CCCC[C@@H]3O)cc(Cc3ccc(-n4cccn4)cc3)c21 [Compound 454, N-[(1S,2S)-2-hydroxycyclohexyl]-1-methyl-7-[(4-pyrazol-1-ylphenyl)methyl]pyrrolo[3,2-b]pyridine-5-carboxamide]
200 | 86.4 | – | Cn1ccc(-c2ccc(Cc3cc(C(=O)NC4CCOCC4(C)C)nc4ccn(C)c34)cc2)n1 (centres unmarked) [Compound 477, N-(3,3-dimethyltetrahydropyran-4-yl)-1-methyl-7-[[4-(1-methylpyrazol-3-yl)phenyl]methyl]pyrrolo[3,2-b]pyridine-5-carboxamide]
1480 | 66.6 | – | CN1CCC(NC(=O)c2cc(Cc3ccc(-n4cccn4)cc3)c3sccc3n2)CC1 [Compound 443, N-(1-methyl-4-piperidyl)-7-[(4-pyrazol-1-ylphenyl)methyl]thieno[3,2-b]pyridine-5-carboxamide]
795 | 67.8 | – | O=C(NCc1cc[nH]n1)c1cc(Cc2ccc(-n3cccn3)cc2)c2sccc2n1 [Compound 448, N-(1H-pyrazol-3-ylmethyl)-7-[(4-pyrazol-1-ylphenyl)methyl]thieno[3,2-b]pyridine-5-carboxamide]
1420 | 79.6 | – | COCCNC(=O)c1cc(Cc2ccc(-c3nccs3)cc2)c2sccc2n1 [Compound 373, N-(2-methoxyethyl)-7-[(4-thiazol-2-ylphenyl)methyl]thieno[3,2-b]pyridine-5-carboxamide]

Continued, compound first:

Structure (SMILES) | EC50 [1] [nM] | Emax (Table 2, human M1) [%] | EC50 (Table 1, mAChR M1 cell-based functional assay, PAM mode, species not given, read-out: EC50) [nM]
Cn1cc(-c2ccc(Cc3cc(C(=O)N[C@@H]4CCOC4)nc4ccsc34)cn2)cn1 [Compound 344, 7-[[6-(1-methylpyrazol-4-yl)-3-pyridyl]methyl]-N-[(3R)-tetrahydrofuran-3-yl]thieno[3,2-b]pyridine-5-carboxamide] | 798 | 85.5 | –
Cc1nc(-c2ccc(Cc3cc(C(=O)N4CCC[C@@H](O)C4)nc4ccsc34)cc2)co1 [Compound 173, [(3R)-3-hydroxy-1-piperidyl]-[7-[[4-(2-methyloxazol-4-yl)phenyl]methyl]thieno[3,2-b]pyridin-5-yl]methanone] | > 10000 | 37 | –
Cc1nc(-c2ccc(Cc3cc(C(=O)N[C@@H]4CCOC4)nc4ccsc34)cc2)cs1 [Compound 183, 7-[[4-(2-methylthiazol-4-yl)phenyl]methyl]-N-[(3R)-tetrahydrofuran-3-yl]thieno[3,2-b]pyridine-5-carboxamide] | 2530 | 67.3 | –
O=C(N[C@@H]1CCOC[C@H]1O)c1cc(Cc2ccc(-n3cccn3)cc2)c2sccc2n1 [Compound 74, N-[(3S,4R)-3-hydroxytetrahydropyran-4-yl]-7-[(4-pyrazol-1-ylphenyl)methyl]thieno[3,2-b]pyridine-5-carboxamide] | 12.2 | 84.9 | –
O=C(N[C@H]1CCCNC1)c1cc(Cc2ccc(-n3cccn3)cc2)c2sccc2n1 [Compound 290, N-[(3S)-3-piperidyl]-7-[(4-pyrazol-1-ylphenyl)methyl]thieno[3,2-b]pyridine-5-carboxamide] | 5340 | 65.3 | –
Cc1csc2c(Cc3ccc(-c4ccn(C)n4)cc3)cc(C(=O)NC3CC4(COC4)C3)nc12 [Compound 304, 3-methyl-7-[[4-(1-methylpyrazol-3-yl)phenyl]methyl]-N-(2-oxaspiro[3.3]heptan-6-yl)thieno[3,2-b]pyridine-5-carboxamide] | 568 | 72.3 | –
Cc1ccc(C(F)c2cc(C(=O)N[C@@H]3CCCC[C@H]3O)nc3ccsc23)cn1 (stereo partly drawn) [Compound 85, 7-[fluoro-(6-methyl-3-pyridyl)methyl]-N-[(1R,2R)-2-hydroxycyclohexyl]thieno[3,2-b]pyridine-5-carboxamide] | 80.1 | 87.9 | –
Cc1nc(-c2ccc(Cc3cc(C(=O)NC4CCCCC4)nc4ccsc34)cc2)co1 [Compound 162, N-cyclohexyl-7-[[4-(2-methyloxazol-4-yl)phenyl]methyl]thieno[3,2-b]pyridine-5-carboxamide] | 5040 | 74 | –
Cc1nc(-c2ccc(Cc3cc(C(=O)N(C)C4CCOCC4)nc4ccsc34)cc2)co1 [Compound 165, N-methyl-7-[[4-(2-methyloxazol-4-yl)phenyl]methyl]-N-tetrahydropyran-4-yl-thieno[3,2-b]pyridine-5-carboxamide] | > 10000 | 70.8 | –
Cc1ccc(C(=O)c2cc(C(=O)N[C@@H]3CCCC[C@H]3O)nc3ccsc23)cn1 [Compound 145, N-[(1R,2R)-2-hydroxycyclohexyl]-7-(6-methylpyridine-3-carbonyl)thieno[3,2-b]pyridine-5-carboxamide] | > 10000 | 41.6 | –
Cc1ccc(Cc2cc(C(=O)N[C@@H]3CCC[C@H]3O)nc3c(C)csc23)cn1 [Compound 100] | 654 | 87.5 | –
COCCNC(=O)c1cc(Oc2ccc(C)nc2)c2sccc2n1 [Compound 33, N-(2-methoxyethyl)-7-[(6-methyl-3-pyridyl)oxy]thieno[3,2-b]pyridine-5-carboxamide] | – | – | > 10000
Cn1cc(-c2ccc(Cc3cc(C(=O)NCC4CCOCC4)nc4ccsc34)cn2)cn1 [Compound 334, 7-[[6-(1-methylpyrazol-4-yl)-3-pyridyl]methyl]-N-(tetrahydropyran-4-ylmethyl)thieno[3,2-b]pyridine-5-carboxamide] | 103 | 83 | –
CO[C@@H]1CCCC[C@H]1NC(=O)c1cc(Cc2ccc(-n3cccn3)cc2)c2scc(C)c2n1 [Compound 119, N-[(1R,2R)-2-methoxycyclohexyl]-3-methyl-7-[(4-pyrazol-1-ylphenyl)methyl]thieno[3,2-b]pyridine-5-carboxamide] | 2280 | 83.3 | –
Cn1cc(-c2ccc(Cc3cc(C(=O)N[C@@H]4CCCC[C@H]4O)nc4ccsc34)cc2)nn1 [Compound 155, N-[(1R,2R)-2-hydroxycyclohexyl]-7-[[4-(1-methyltriazol-4-yl)phenyl]methyl]thieno[3,2-b]pyridine-5-carboxamide] | 12.7 | 68.7 | –
